Source: US20160031889A1, “ANTIVIRAL INDOLO[2,3-B]QUINOXALINE” (VIRONOVA HERPES AB, priority 2013, published 2016)
Counter-ions that a name gives are not always drawn. Values belong to the compound of their own block, whether it stands above or below them.

Tests used:
[1] = system: herpes simplex 1 virus (HSV1); test: Plaque Assay 1 (plaque counting); assay type: cell-based; details: for plaques seen in plaque assay: concentration and dilution not stated
Experimental: The compounds prepared in Examples 1-4 were tested in a plaque assay using herpes simplex 1 virus (HSV1), and acyclovir (ACV) as a reference compound. […] The plaque counting results obtained when using the compounds of Examples 1 and 4, and the reference compound ACV, respectively, are shown in Tables 1-3.

[2] = system: HSV-1; details: in vitro; cited from earlier work

melting point: 248 to 252 °C
Structure (SMILES): Br.C=CC[N+](C)(C)CCn1c2ccccc2c2nc3cc(C)c(C)cc3nc21

Structure (SMILES): Nc1nc2c(ncn2COCCO)c(=O)[nH]1 [ACV, acyclovir, reference compound]
plaque count ([1]; compound 1 uM, 10^1 dilution): 15
plaque count ([1]; compound 5 uM, 10^1 dilution): 8
plaque count ([1]; compound 5 uM, 10^2 dilution): 1
plaque count ([1]; compound 25 uM, 10^1 dilution): 2
selectivity ratio for the inhibitory activity against HSV-1 [2]: about 2000

Structure (SMILES): Cc1cc2nc3c4cc(Cl)ccc4n(CC(=O)NCCN(C)C)c3nc2cc1C [Example 2, 9-chloro-N-[2-(dimethylamino)ethyl]-2,3-dimethyl-6H-Indolo[2,3-b]quinoxaline-6-acetamide]
plaques seen in plaque assay [1]: no plaques could be seen

Structure (SMILES): Cc1cc2nc3c4ccccc4n(CC[N+](C)(C)C)c3nc2cc1C [Example 4, 2,3-dimethyl-6-[2-(trimethylamino)ethyl]-6H-indolo[2,3-b]quinoxaline methyl sulfate]
plaque count ([1]; compound 1 uM, 10^1 dilution): 11
plaque count ([1]; compound 5 uM, 10^1 dilution): 2

Structure (SMILES): Cc1cc2nc3c4ccccc4n(CC[N+](C)(C)C)c3nc2cc1C.[I-] [Example 1, 2,3-Dimethyl-6-[2-(trimethylamino)ethyl]-6H-indolo[2,3-b]quinoxaline iodide]
plaque count ([1]; compound 1 uM, 10^1 dilution): 19
plaque count ([1]; compound 1 uM, 10^2 dilution): 3
plaque count ([1]; compound 1 uM, 10^3 dilution): 1
plaque count ([1]; compound 5 uM, 10^1 dilution): 8
plaque count ([1]; compound 5 uM, 10^2 dilution): 2

Structure (SMILES): Cc1cc2nc3c4cc(Cl)ccc4n(CC(=S)NCCN(C)C)c3nc2cc1C [Example 3, 9-chloro-N-[2-(dimethylamino)ethyl]-2,3-dimethyl-6H-Indolo[2,3-b]quinoxaline-6-thioacetamide]
plaques seen in plaque assay [1]: no plaques could be seen
